The results in this text go back to article PMC11055985, “Metochalcone induces senescence-associated secretory phenotype via JAK2/STAT3 pathway in breast cancer” (Oncology Research, 2024).

The test concerns the target STAT3 (Homo sapiens, UniProt P40763). Briefly: microscale thermophoresis (MST) with His-tag-labelled purchased STAT3 protein (ACROBiosystems ST3-H5149). The class given is binding. A general note: Microscale thermophoresis detects binding through changes in fluorescence in a small temperature gradient.

Structures are written as SMILES.

Chain of STAT3 (P40763 2-770): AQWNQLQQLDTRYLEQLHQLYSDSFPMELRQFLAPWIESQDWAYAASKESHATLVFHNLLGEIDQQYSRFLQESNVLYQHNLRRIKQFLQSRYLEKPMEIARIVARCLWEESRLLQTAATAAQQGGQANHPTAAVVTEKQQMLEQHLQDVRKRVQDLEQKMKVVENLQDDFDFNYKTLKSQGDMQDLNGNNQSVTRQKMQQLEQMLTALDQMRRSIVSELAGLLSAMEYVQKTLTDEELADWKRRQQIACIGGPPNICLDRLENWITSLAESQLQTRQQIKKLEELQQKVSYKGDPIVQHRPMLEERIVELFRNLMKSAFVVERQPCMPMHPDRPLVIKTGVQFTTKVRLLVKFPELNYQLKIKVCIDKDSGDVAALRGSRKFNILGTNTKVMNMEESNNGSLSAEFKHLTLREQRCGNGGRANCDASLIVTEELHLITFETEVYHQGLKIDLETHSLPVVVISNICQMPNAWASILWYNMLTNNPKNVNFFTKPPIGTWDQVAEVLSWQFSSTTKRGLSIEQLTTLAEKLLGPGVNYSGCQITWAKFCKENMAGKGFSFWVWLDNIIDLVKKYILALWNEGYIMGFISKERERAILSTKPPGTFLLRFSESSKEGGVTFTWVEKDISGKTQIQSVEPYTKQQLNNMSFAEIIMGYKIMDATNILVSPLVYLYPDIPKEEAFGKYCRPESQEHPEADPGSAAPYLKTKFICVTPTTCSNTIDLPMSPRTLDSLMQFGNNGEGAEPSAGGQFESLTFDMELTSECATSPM

`COc1ccc(/C=C/C(=O)c2ccc(OC)cc2OC)cc1` [TEC, 2', 4, 4'-trimethoxychalcone] had a Kd of 9.85 µM.

For orientation: Kd means the free concentration of one partner at which half of the binding sites on the other are occupied at equilibrium, for simple one-to-one binding. Read a low Kd as higher affinity.
